From publication PMC10048662, “Whole-Cell Biocatalytic Production of Acetoin with an aldC-Overexpressing Lactococcus lactis Using Soybean as Substrate” (Foods, 2023) come the findings set out here.

The assay concerns the target T1, ALDC (α-acetolactate decarboxylase, aldC) (Lactiplantibacillus plantarum, UniProt F9UPY7).
T1 construct: gene aldB; expressed in Lactococcus lactis NZ9000 from pNZ8048, crude lysate supernatant; ALDC described as dimer
Briefly: acetoin formation, creatine/α-naphthol colour reaction at […] nm. Type of assay: biochemical. To be noted: crude lysate supernatant of nisin-induced cells; 30 °C, 20 min; uninduced cells as comparison.

SMILES strings stand for the structures.

T1 sequence (F9UPY7 entry or part of it): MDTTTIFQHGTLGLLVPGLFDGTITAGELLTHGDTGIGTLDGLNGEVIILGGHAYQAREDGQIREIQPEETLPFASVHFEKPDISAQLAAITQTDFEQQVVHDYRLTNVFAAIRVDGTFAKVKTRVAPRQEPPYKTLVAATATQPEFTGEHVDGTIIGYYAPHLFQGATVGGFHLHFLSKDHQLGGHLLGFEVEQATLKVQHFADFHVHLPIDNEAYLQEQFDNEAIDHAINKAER

Consider `CC(=O)C(C)(O)C(=O)O` (racemic) [α-acetolactate], for which the “acetoin formation, creatine/α-naphthol colour reaction at 522 nm” value is “the expressed ALDC can efficiently convert α-acetolactate to acetoin”.
